Here are results for 4 cell lines from the supplement of paper PMC10307832.

Holding throughout (assay): relative viability (nuclei count vs DMSO), 5 days (fraction); higher = more cells survive
Compound in the assay “KN-93 + Trametinib”: CN(C/C=C/C1=CC=C(C=C1)Cl)CC2=CC=CC=C2N(CCO)S(=O)(=O)C3=CC=C(C=C3)OC [KN-93] + CC(=O)Nc1cccc(-n2c(=O)n(C3CC3)c(=O)c3c(Nc4ccc(I)cc4F)n(C)c(=O)c(C)c32)c1 [Trametinib] (partner 0.02 µM)
A digest of the protocol:
(§1)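 Lung cancer cell lines in 1536-well plates got either a single drug or a fixed anchor-drug dose together with five library-drug doses (not always all listed) in √10 steps, by pin tool, on the day after seeding. Nuclei were counted after 5 days, and relative viability is the treated-to-vehicle ratio of nuclei counts. Values are medians of duplicate plates.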

Compound in the assay “KN-93 + Palbociclib”: CN(C/C=C/C1=CC=C(C=C1)Cl)CC2=CC=CC=C2N(CCO)S(=O)(=O)C3=CC=C(C=C3)OC [KN-93] + CC(=O)c1c(C)c2cnc(Nc3ccc(N4CCNCC4)cn3)nc2n(C2CCCC2)c1=O [Palbociclib] (partner 0.5 µM)
A digest of the protocol:
as §1

Compound in the assay “KN-93 + Luminespib”: CN(C/C=C/C1=CC=C(C=C1)Cl)CC2=CC=CC=C2N(CCO)S(=O)(=O)C3=CC=C(C=C3)OC [KN-93] + CCNC(=O)c1noc(-c2cc(C(C)C)c(O)cc2O)c1-c1ccc(CN2CCOCC2)cc1 [Luminespib] (partner 0.01 µM)
The gist of the method: as §1

Compound in the assay “KN-93 + Lapatinib”: CN(C/C=C/C1=CC=C(C=C1)Cl)CC2=CC=CC=C2N(CCO)S(=O)(=O)C3=CC=C(C=C3)OC [KN-93] + CS(=O)(=O)CCNCc1ccc(-c2ccc3ncnc(Nc4ccc(OCc5cccc(F)c5)c(Cl)c4)c3c2)o1 [Lapatinib] (partner 2 µM)
A digest of the protocol: as §1

Compound in the assay “KN-93 + Pictilisib”: CN(C/C=C/C1=CC=C(C=C1)Cl)CC2=CC=CC=C2N(CCO)S(=O)(=O)C3=CC=C(C=C3)OC [KN-93] + CS(=O)(=O)N1CCN(Cc2cc3nc(-c4cccc5[nH]ncc45)nc(N4CCOCC4)c3s2)CC1 [Pictilisib] (partner 1 µM)
The gist of the method:
as §1

Turning to NCI-H3122, the relative viability was 0.2 with KN-93 + Trametinib (first compound 0.08 µM); 0.21 with KN-93 + Trametinib (first compound 0.253 µM); 0.264 with KN-93 + Trametinib (first compound 2.53 µM); 0.194 with KN-93 + Trametinib (first compound 8 µM); 0.127 with KN-93 + Palbociclib (first compound 0.08 µM); 0.181 in the assay with KN-93 + Palbociclib (first compound 0.253 µM). Also, the relative viability in the assay with KN-93 + Palbociclib (first compound 2.53 µM) came to 0.229; in the assay with KN-93 + Palbociclib (first compound 8 µM), 0.184; in the assay with KN-93 + Luminespib (first compound 0.08 µM), 0.0763; with KN-93 + Luminespib (first compound 0.253 µM) it was 0.0918; in the assay with KN-93 + Luminespib (first compound 2.53 µM), 0.0989; in the assay with KN-93 + Luminespib (first compound 8 µM), 0.0487. For the same cell line, the relative viability with KN-93 + Lapatinib (first compound 0.08 µM) worked out at 1.09; with KN-93 + Lapatinib (first compound 0.253 µM), 1.01; with KN-93 + Lapatinib (first compound 2.53 µM) it was 1.12; with KN-93 + Lapatinib (first compound 8 µM), 0.978; in the assay with KN-93 + Pictilisib (first compound 0.08 µM), 0.622; in the assay with KN-93 + Pictilisib (first compound 0.253 µM), 0.708. The relative viability with KN-93 + Pictilisib (first compound 2.53 µM) is 0.639; in the assay with KN-93 + Pictilisib (first compound 8 µM), 0.627.

On to PC-3 [JPC-3], for which the relative viability worked out at 0.703 with KN-93 + Trametinib (first compound 0.08 µM); 0.533 with KN-93 + Trametinib (first compound 0.253 µM); 0.674 in the assay with KN-93 + Trametinib (first compound 2.53 µM); 0.608 with KN-93 + Trametinib (first compound 8 µM); 0.49 with KN-93 + Palbociclib (first compound 0.08 µM); 0.476 with KN-93 + Palbociclib (first compound 0.253 µM). For the same cell line, the relative viability amounted to 0.591 in the assay with KN-93 + Palbociclib (first compound 2.53 µM); 0.569 in the assay with KN-93 + Palbociclib (first compound 8 µM); 0.572 in the assay with KN-93 + Luminespib (first compound 0.08 µM); 0.838 with KN-93 + Luminespib (first compound 0.253 µM); 0.632 with KN-93 + Luminespib (first compound 2.53 µM); 0.577 with KN-93 + Luminespib (first compound 8 µM). The relative viability with KN-93 + Lapatinib (first compound 0.08 µM) was determined as 0.462; with KN-93 + Lapatinib (first compound 0.253 µM) it was 0.382; with KN-93 + Lapatinib (first compound 2.53 µM), 0.439; with KN-93 + Lapatinib (first compound 8 µM) it was 0.428; in the assay with KN-93 + Pictilisib (first compound 0.08 µM) it was 0.727; with KN-93 + Pictilisib (first compound 0.253 µM), 0.708. The figures for the relative viability in the assay with KN-93 + Pictilisib (first compound 2.53 µM) and in the assay with KN-93 + Pictilisib (first compound 8 µM) were 0.759 and 0.645, respectively.

As to PC-14, the relative viability came to 0.553 in the assay with KN-93 + Trametinib (first compound 0.08 µM); 0.802 with KN-93 + Trametinib (first compound 0.253 µM); 0.696 in the assay with KN-93 + Trametinib (first compound 2.53 µM); 0.524 with KN-93 + Trametinib (first compound 8 µM); 0.483 with KN-93 + Palbociclib (first compound 0.08 µM); 0.607 with KN-93 + Palbociclib (first compound 0.253 µM). In addition, the relative viability came out at 0.751 with KN-93 + Palbociclib (first compound 2.53 µM); 0.35 with KN-93 + Palbociclib (first compound 8 µM); 0.151 with KN-93 + Luminespib (first compound 0.08 µM); 0.154 with KN-93 + Luminespib (first compound 0.253 µM); 0.13 with KN-93 + Luminespib (first compound 2.53 µM); 0.138 with KN-93 + Luminespib (first compound 8 µM). Also, the relative viability came out at 0.305 with KN-93 + Lapatinib (first compound 0.08 µM); 0.227 with KN-93 + Lapatinib (first compound 0.253 µM); 0.318 with KN-93 + Lapatinib (first compound 2.53 µM); 0.307 with KN-93 + Lapatinib (first compound 8 µM); 0.531 in the assay with KN-93 + Pictilisib (first compound 0.253 µM); 0.618 with KN-93 + Pictilisib (first compound 2.53 µM). In addition, in the assay with KN-93 + Pictilisib (first compound 8 µM), the relative viability worked out at 0.349.

Consider RERF-LC-KJ, for which the relative viability came out at 0.924 in the assay with KN-93 + Trametinib (first compound 0.08 µM); 0.869 with KN-93 + Trametinib (first compound 0.253 µM); 0.83 with KN-93 + Trametinib (first compound 2.53 µM); 0.624 with KN-93 + Trametinib (first compound 8 µM); 1.03 in the assay with KN-93 + Palbociclib (first compound 0.08 µM); 1 with KN-93 + Palbociclib (first compound 0.253 µM). Besides, the relative viability with KN-93 + Palbociclib (first compound 2.53 µM) came out at 1.16; with KN-93 + Palbociclib (first compound 8 µM), 0.8; with KN-93 + Luminespib (first compound 0.08 µM), 1.21; with KN-93 + Luminespib (first compound 0.253 µM), 1.51; with KN-93 + Luminespib (first compound 2.53 µM), 1.16; in the assay with KN-93 + Luminespib (first compound 8 µM), 0.559. The relative viability worked out at 0.803 in the assay with KN-93 + Lapatinib (first compound 0.08 µM); 0.81 in the assay with KN-93 + Lapatinib (first compound 0.253 µM); 1.01 with KN-93 + Lapatinib (first compound 2.53 µM); 0.776 with KN-93 + Lapatinib (first compound 8 µM); 0.582 with KN-93 + Pictilisib (first compound 0.08 µM); 0.486 with KN-93 + Pictilisib (first compound 0.253 µM). Also, the relative viability in the assay with KN-93 + Pictilisib (first compound 2.53 µM) is 0.598; with KN-93 + Pictilisib (first compound 8 µM), 0.332.
